Read-outs that look alike come from different tables or passages of the source.
Tests used:
SMYD3 = biological target: T1, SMYD3 (Homo sapiens, UniProt Q9H7B4); assay: SMYD3 biochemical assay (MTase-Glo, MAP3K2 peptide substrate)
T1 sequence (Q9H7B4 1-428): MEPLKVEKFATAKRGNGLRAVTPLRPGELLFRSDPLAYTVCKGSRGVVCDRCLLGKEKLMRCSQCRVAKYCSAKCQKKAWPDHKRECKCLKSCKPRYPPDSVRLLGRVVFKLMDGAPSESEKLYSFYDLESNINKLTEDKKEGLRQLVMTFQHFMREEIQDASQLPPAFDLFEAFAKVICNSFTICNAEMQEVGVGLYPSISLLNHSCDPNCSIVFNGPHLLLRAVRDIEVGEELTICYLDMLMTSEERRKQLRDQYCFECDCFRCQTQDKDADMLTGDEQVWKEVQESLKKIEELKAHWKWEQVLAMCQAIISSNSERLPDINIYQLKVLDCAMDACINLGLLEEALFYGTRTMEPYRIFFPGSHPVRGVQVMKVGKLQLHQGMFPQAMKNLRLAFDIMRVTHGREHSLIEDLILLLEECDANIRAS
Method in brief: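 Luminescent readout of SAH production (coupled SAH→ATP conversion, MTase-Glo) after SMYD3 reacted 30 min at room temperature with 1.0 µM SAM and 10 µM MAP3K2 peptide, both final. Non-linear regression gave IC50 values.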

A549 = assay: Cell proliferation assay (CellTiter-Glo), A549; assay type: cell-based; conditions: Homo sapiens, A549, 72 h; 3 days
Description: The cell proliferation assays were tested in several cell lines, including HepG2,HCT116, A549, HPAF-II, CFPAC-1,HuH7, SNU398,Hep3B, and HEK293. All cell lines are from ATCC. HepG2, HPAF-II and HEK293 are cultured in Eagle's MEM media supplemented with fetal bovine serum. HCT116 is cultured in McCoy media supplemented with fetal bovine serum. Huh-7 is cultured in DMEM low glucose (1000 mg/L glucose) with 10% FBS, 1% L-Glutamate and 1% Penicillin/Streptomycin. SNU398 is cultured in RPMI with 10% FBS with 1% L-Glutamate and 1% Penicillin/Streptomycin. Hep3B is cultured in Eagle's MEM with 10% FBS, 1% L-Glutamate and 1% Penicillin/Streptomycin. A549 is cultured in RPMI media supplemented with fetal bovine serum while CFPAC-1 is cultured in IMDM media supplemented with fetal bovine serum. All media and serum are purchased from Gibco (Lifetech). All cells were grown in a temperature controlled incubator at 37° C. and 5% CO2.
Cell proliferation assay was performed using CellTiter-Glo Luminescent Cell Viability Assay (Promega) following manufacturer's instructions. The cell-line of interest was treated with compounds that were serial diluted in its respective media. Plates were incubated for 3 days at 37° C. in 5% CO2. After 3 days, an equal volume of Cell Titer Glo reagent was added. Plates were rocked on a rotator for 2 h. 100 μL of each well were transferred to a 96-well opaque plate, and luminescence emitted was measured with the Tecan Safire II.

[1] = tested on: MAP3K2 methylation (me2/me3-Lys 260); assay: SMYD3 mediated methylation of MAP3K2 in HEK293 cells (Western blot); assay type: cell-based, Human; conditions: 25 μM
Description: The cells were seeded in 6 well plates. After seeding for 24 h, the cells were treated with either DMSO or 25 μM compound and incubated for 24 hr. The cells were trypsinized and the lysate was extracted with RIPA buffer (Santa Cruz). The total protein concentration of lysate is quantified using the standard Bradford assay (Biorad protein assay, microplate standard assay).
Western blot analysis for detecting methylated MAP3K2 was carried out using a customized Anti-me2/me3-Lys 260 MAP3K2 at 1:500 and the total MAP3K2 was detected using Anti-MEKK2 (AB33918) using a 1:10,000 dilution.
B019 was further tested for its ability to inhibit SMYD3 in cells through its effects on cellular MAP3K2 methylation. This was performed using an antibody against the MAP3K2 (me2/me3), Anti-ME2/ME3-K260-MAP3K2 (1:500) and total MAP3K2, Anti-MEKK2 #ab33918 (1:10,000).

Hep G2 cells = assay: Soft agar colony formation assay; assay type: cell-based, human
Description: Hep G2 cells were purchased from ATCC. Hep G2 cells were maintained in Eagle's Minimum Essential Medium (Sigma, Cat No: #M0643) supplemented with 10% Fetal Bovine Serum (Hyclone, Cat No: SV30087.03), 2 mM L-glutamine, 100 units/mL penicillin and 100 μg/mL streptomycin (Life Technologies, Cat No: 10378-016). The soft agar assays were performed in concordance to the ETC approved method report for soft agar assay (ETC document number: RD0019). Briefly, 600 μL of 0.6% agar was added to 24-well plate (Corning, Cat No: 3738) to form the base layer. This is followed by the addition of 500 μL of 0.36% agar middle layer (containing 10′000Hep G2 cells). Lastly, 500 μL of fresh growth medium (containing the corresponding serially diluted compound) was added above the middle layer. The plates were incubated at 37° C. with 5% carbon dioxide in a humidified incubator for 1 to 2 weeks. 70 μL of thiazolyl blue tetrazolium bromide (5 mg/mL, Sigma Cat No: M5655) was added to each well and the plates were incubated at 37° C. for 2 h. Colonies were counted with GelCount® instrument (Oxford Optronix). The colony counts were plotted against compound concentrations using the Graphpad Prism software. In addition, the software was used to perform non-linear curve fitting and the calculation of IC50.

`CCCOC(=O)N1CCN(C(=O)c2ccc3c(Cl)cc(-c4ccccc4)nc3c2)C[C@H]1C` [B019, Propyl (R)-4-(4-chloro-2-phenylquinoline-7-carbonyl)-2-methylpiperazine-1-carboxylate] gave an IC50 (SMYD3; Table 1, MAP3K2 peptide as substrate, read-out: IC50) of 59.5 nM, an IC50 (SMYD3; Table 2, read-out: Biochemical assay IC50) of 59.5 nM and an IC50 (SMYD3; Table 3, MTase assay, MAP3K2 peptide substrate, read-out: IC50) of 60 nM. The GI50 (A549) was 28800 nM, the “inhibition of methylation of MAP3K2 in cells” value [1] was “inhibited” and the “total MAP3K2 levels” value [1] was “without changing”. It also gave a maximum inhibition (Hep G2 cells; Hep G2, soft agar) of 97.2%, an IC50 (Hep G2 cells; Homo sapiens, HepG2, Hep G2, soft agar) of 230 nM and an inhibition at 10 µM (Hep G2 cells; Homo sapiens, HepG2, highest concentration tested (10 μM)) of about 100%.

From patent US20190071416A1, “COMPOUNDS FOR TREATMENT OF CANCER AND EPIGENETICS” (Agency For Science, Technology and Research, priority 2015, published 2019)
